Assay results from PMC9120017, “Inhibition mechanism of the chloride channel TMEM16A by the pore blocker 1PBC” (Nature Communications, 2022).
Read-outs that look alike come from different tables or passages of the source.

Target: T1, mouse TMEM16A mutant R515A (Mus musculus, UniProt Q8BHY3, R515A)
T1 construct: expressed in transfected cells; host or cells: HEK293T
T1 sequence (Q8BHY3 1-960 R515A): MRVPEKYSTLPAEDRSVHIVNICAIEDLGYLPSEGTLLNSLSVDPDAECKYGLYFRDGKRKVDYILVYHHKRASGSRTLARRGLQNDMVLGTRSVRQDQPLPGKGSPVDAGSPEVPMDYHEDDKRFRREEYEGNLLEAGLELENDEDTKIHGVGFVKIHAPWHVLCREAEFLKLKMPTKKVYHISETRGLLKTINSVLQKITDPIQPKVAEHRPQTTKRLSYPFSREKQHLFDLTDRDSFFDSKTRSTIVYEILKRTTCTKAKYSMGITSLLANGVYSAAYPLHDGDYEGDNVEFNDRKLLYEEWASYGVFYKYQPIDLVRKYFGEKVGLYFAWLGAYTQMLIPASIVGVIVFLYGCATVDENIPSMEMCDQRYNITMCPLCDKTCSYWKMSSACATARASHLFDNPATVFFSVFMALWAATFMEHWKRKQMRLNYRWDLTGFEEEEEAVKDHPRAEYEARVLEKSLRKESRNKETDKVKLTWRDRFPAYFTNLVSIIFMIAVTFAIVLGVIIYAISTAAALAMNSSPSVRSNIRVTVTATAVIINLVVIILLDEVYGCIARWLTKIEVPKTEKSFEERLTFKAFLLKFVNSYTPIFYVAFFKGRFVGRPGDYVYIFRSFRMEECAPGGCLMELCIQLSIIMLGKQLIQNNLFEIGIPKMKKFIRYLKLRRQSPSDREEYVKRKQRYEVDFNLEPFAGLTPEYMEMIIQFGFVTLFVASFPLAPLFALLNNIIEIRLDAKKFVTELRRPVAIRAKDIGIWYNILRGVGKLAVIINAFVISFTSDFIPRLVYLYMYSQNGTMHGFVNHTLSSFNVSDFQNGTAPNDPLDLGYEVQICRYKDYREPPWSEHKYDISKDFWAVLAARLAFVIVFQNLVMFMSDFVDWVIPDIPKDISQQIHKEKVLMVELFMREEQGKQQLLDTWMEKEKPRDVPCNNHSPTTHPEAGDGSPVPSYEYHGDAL
Assay: Inside-out patch recording of 1PBC block, mutant R515A
Assay type: cell-based
Method: HEK293T cells (ATCC CRL-1573) were maintained in Dulbecco’s modified Eagle’s medium (DMEM; Sigma-Aldrich) supplemented with 10 U ml^−1 penicillin, 0.1 mg ml^−1 streptomycin (Sigma-Aldrich), 2 mM L-glutamine (Sigma-Aldrich), and 10% FBS (Sigma-Aldrich) in a humidified atmosphere containing 5% CO2 at 37 °C. HEK293S GnTI^− cells (ATCC CRL-3022) were maintained in HyClone HyCell TransFx-H medium (GE Healthcare) supplemented with 10 U ml^−1 penicillin, 0.1 mg ml^−1 streptomycin, 4 mM L-glutamine, 0.15% poloxamer 188 (Sigma-Aldrich), and 1% FBS in an atmosphere containing 5% CO2 at 185 rpm at 37 °C. The ac splice variant of mouse TMEM16A (UniProt ID: Q8BHY3), mouse TMEM16B (UniProt ID: Q8CFW1), or mouse TMEM16F (UniProt ID: Q6P9J9) bearing a 3C cleavage site, a Venus YFP, a Myc tag, and a Streptavidin-binding peptide (SBP) downstream of the open reading frame in a modified pcDNA3.1 vector (Invitrogen) were used as described previously[21],[31]. Mutations were introduced using a modified QuikChange method[58] and were verified by sequencing.
HEK293T cells were transfected with 3–4 μg DNA per 6 cm Petri dish using the calcium phosphate co-precipitation method and were used within 24–96 h after transfection. Recordings were performed on inside-out patches excised from HEK293T cells expressing the construct of interest. Patch pipettes were pulled from borosilicate glass capillaries (O.D. 1.5 mm, I.D. 0.86 mm, Sutter Instrument) and were fire-polished with a microforge (Narishige) before use. Pipette resistance was typically 3–8 MΩ when filled with the recording solutions detailed below. Seal resistance was typically 4 GΩ or higher. Voltage-clamp recordings were made using Axopatch 200B, Digidata 1550, and Clampex 10.7 (Molecular Devices). Analog signals were filtered with the in-built 4-pole Bessel filter at 10 kHz and were digitized at 20 kHz. Solution exchange was achieved using a gravity-fed system through a theta glass pipette mounted on an ultra-fast piezo-driven stepper (Siskiyou). […] All recordings were performed at 20 °C.
A symmetrical ionic condition was used throughout. Stock solution with Ca^2+-EGTA contained 150 mM NaCl, 5.99 mM Ca(OH)2, 5 mM EGTA, and 10 mM HEPES at pH 7.40. Stock solution with EGTA contained 150 mM NaCl, 5 mM EGTA, and 10 mM HEPES at pH 7.40. Free Ca^2+ concentrations were adjusted by mixing the stock solutions at the required ratios calculated using the WEBMAXC program (http://web.stanford.edu/~cpatton/webmaxcS.htm). Patch pipettes were filled with the stock solution with Ca^2+-EGTA, which has a free Ca^2+ concentration of 1 mM. 1PBC (ChemBridge) stock was reconstituted in anhydrous DMSO (Sigma-Aldrich) at 100 mM and stored at −20 °C. Working solutions with 1PBC were prepared by serial dilution. Unless otherwise stated, experiments were performed at a saturating Ca^2+ concentration as shown in Supplementary Table 1 and the primary data were corrected for current rundown as described previously[21],[25].
Concentration-response relations, obtained from the ratio of the I-V plots before and after the application of the blocker, were fitted to the Hill equation,1 I/Imax=1/1+IC50/[blocker]^h where I/Imax is the normalized current responses, IC50 defines the concentration at which inhibition is at its half-maximum, and h is the Hill coefficient.

N#Cc1c(C(F)(F)F)cc(O)n2c1nc1ccccc12 [1PBC]
IC50 (0 mV, 4 µM Ca2+): 120 µM | remaining activity at 10 µM (10 µM 1PBC, +80 mV, saturating Ca2+ (4 µM), read-out: I/Imax): 91.2% | remaining activity at 10 µM (10 µM 1PBC, -80 mV, saturating Ca2+ (4 µM), read-out: I/Imax): 93.3% | remaining activity at 30 µM (30 µM 1PBC, +80 mV, saturating Ca2+ (4 µM), read-out: I/Imax): 74.8% | remaining activity at 30 µM (30 µM 1PBC, -80 mV, saturating Ca2+ (4 µM), read-out: I/Imax): 86.5% | remaining activity at 100 µM (100 µM 1PBC, +80 mV, saturating Ca2+ (4 µM), read-out: I/Imax): 47.7% | remaining activity at 100 µM (100 µM 1PBC, -80 mV, saturating Ca2+ (4 µM), read-out: I/Imax): 61.6% | remaining activity at 10 µM (1PBC 10, 0 mV, read-out: fraction of unblocked current): 92.5% | remaining activity at 10 µM (1PBC 10, 20 mV, read-out: fraction of unblocked current): 92.3% | remaining activity at 10 µM (1PBC 10, 40 mV, read-out: fraction of unblocked current): 92.8% | remaining activity at 10 µM (1PBC 10, 60 mV, read-out: fraction of unblocked current): 91.6% | remaining activity at 10 µM (1PBC 10, 80 mV, read-out: fraction of unblocked current): 91.2% | remaining activity at 10 µM (1PBC 10, 100 mV, read-out: fraction of unblocked current): 93.9% | remaining activity at 10 µM (1PBC 10, 120 mV, read-out: fraction of unblocked current): 90.5% | remaining activity at 10 µM (1PBC 10, 140 mV, read-out: fraction of unblocked current): 93.5% | remaining activity at 10 µM (1PBC 10, -20 mV, read-out: fraction of unblocked current): 92.7% | remaining activity at 10 µM (1PBC 10, -40 mV, read-out: fraction of unblocked current): 91.8% | remaining activity at 10 µM (1PBC 10, -60 mV, read-out: fraction of unblocked current): 91.4% | remaining activity at 10 µM (1PBC 10, -80 mV, read-out: fraction of unblocked current): 93.3% | remaining activity at 10 µM (1PBC 10, -100 mV, read-out: fraction of unblocked current): 92.8% | remaining activity at 10 µM (1PBC 10, -120 mV, read-out: fraction of unblocked current): 91.8% | remaining activity at 10 µM (1PBC 10, -140 mV, read-out: fraction of unblocked current): 93.3% | remaining activity at 30 µM (1PBC 30, 0 mV, read-out: fraction of unblocked current): 79.3% | remaining activity at 30 µM (1PBC 30, 20 mV, read-out: fraction of unblocked current): 77.3% | remaining activity at 30 µM (1PBC 30, 40 mV, read-out: fraction of unblocked current): 75.6% | remaining activity at 30 µM (1PBC 30, 60 mV, read-out: fraction of unblocked current): 73.2% | remaining activity at 30 µM (1PBC 30, 80 mV, read-out: fraction of unblocked current): 74.8% | remaining activity at 30 µM (1PBC 30, 100 mV, read-out: fraction of unblocked current): 73.1% | remaining activity at 30 µM (1PBC 30, 120 mV, read-out: fraction of unblocked current): 70.9% | remaining activity at 30 µM (1PBC 30, 140 mV, read-out: fraction of unblocked current): 70% | remaining activity at 30 µM (1PBC 30, -20 mV, read-out: fraction of unblocked current): 81.4% | remaining activity at 30 µM (1PBC 30, -40 mV, read-out: fraction of unblocked current): 84% | remaining activity at 30 µM (1PBC 30, -60 mV, read-out: fraction of unblocked current): 84.5% | remaining activity at 30 µM (1PBC 30, -80 mV, read-out: fraction of unblocked current): 86.5% | remaining activity at 30 µM (1PBC 30, -100 mV, read-out: fraction of unblocked current): 87.5% | remaining activity at 30 µM (1PBC 30, -120 mV, read-out: fraction of unblocked current): 86.9% | remaining activity at 30 µM (1PBC 30, -140 mV, read-out: fraction of unblocked current): 85.6% | remaining activity at 100 µM (1PBC 100, 0 mV, read-out: fraction of unblocked current): 55% | remaining activity at 100 µM (1PBC 100, 20 mV, read-out: fraction of unblocked current): 53.1% | remaining activity at 100 µM (1PBC 100, 40 mV, read-out: fraction of unblocked current): 51% | remaining activity at 100 µM (1PBC 100, 60 mV, read-out: fraction of unblocked current): 49.1% | remaining activity at 100 µM (1PBC 100, 80 mV, read-out: fraction of unblocked current): 47.7% | remaining activity at 100 µM (1PBC 100, 100 mV, read-out: fraction of unblocked current): 46.8% | remaining activity at 100 µM (1PBC 100, 120 mV, read-out: fraction of unblocked current): 47.6% | remaining activity at 100 µM (1PBC 100, 140 mV, read-out: fraction of unblocked current): 48% | remaining activity at 100 µM (1PBC 100, -20 mV, read-out: fraction of unblocked current): 56.9% | remaining activity at 100 µM (1PBC 100, -40 mV, read-out: fraction of unblocked current): 59% | remaining activity at 100 µM (1PBC 100, -60 mV, read-out: fraction of unblocked current): 60.7% | remaining activity at 100 µM (1PBC 100, -80 mV, read-out: fraction of unblocked current): 61.6% | remaining activity at 100 µM (1PBC 100, -100 mV, read-out: fraction of unblocked current): 61.8% | remaining activity at 100 µM (1PBC 100, -120 mV, read-out: fraction of unblocked current): 62.9% | remaining activity at 100 µM (1PBC 100, -140 mV, read-out: fraction of unblocked current): 62.4% | IC50 (20 mV, 4 µM Ca2+): 110 µM | IC50 (40 mV, 4 µM Ca2+): 102 µM | IC50 (60 mV, 4 µM Ca2+): 92.1 µM | log-fold IC50 (change of mutant vs WT) (80 mV): 1.6299 | IC50 (80 mV, 4 µM Ca2+): 91.4 µM | IC50 (100 mV, 4 µM Ca2+): 88.7 µM | IC50 (120 mV, 4 µM Ca2+): 84.4 µM | IC50 (140 mV, 4 µM Ca2+): 86.1 µM | IC50 (-20 mV, 4 µM Ca2+): 131 µM | IC50 (-40 mV, 4 µM Ca2+): 145 µM | IC50 (-60 mV, 4 µM Ca2+): 153 µM | IC50 (-80 mV, 4 µM Ca2+): 166 µM | IC50 (-100 mV, 4 µM Ca2+): 169 µM | IC50 (-120 mV, 4 µM Ca2+): 172 µM | IC50 (-140 mV, 4 µM Ca2+): 168 µM | IC50 (R515A, V 0 mV): 120 µM | IC50 (R515A, V 20 mV): 110 µM | IC50 (R515A, V 40 mV): 102 µM | IC50 (R515A, V 60 mV): 92.1 µM | IC50 (R515A, V 80 mV): 91.4 µM | IC50 (R515A, V 100 mV): 88.7 µM | IC50 (R515A, V 120 mV): 84.4 µM | IC50 (R515A, V 140 mV): 86.1 µM | IC50 (R515A, V -20 mV): 131 µM | IC50 (R515A, V -40 mV): 145 µM | IC50 (R515A, V -60 mV): 153 µM | IC50 (R515A, V -80 mV): 166 µM | IC50 (R515A, V -100 mV): 169 µM | IC50 (R515A, V -120 mV): 172 µM | IC50 (R515A, V -140 mV): 168 µM
